The values below come from the RepoRT retention time repository (doi:10.1021/ac300829f).

Structures are written as SMILES.

The nature of the data set: RP, Thermo Scientific Hypersil GOLD, 150 × 2.1 mm, 1.9 µm, 0.5 mL/min, estimated dead time 0.66 min; A: water + 0.1% formic acid, pH 3; B: acetonitrile + 0.1% formic acid, pH 3; gradient (min/%B) 0/0 2/0 13/100 15.5/100 19/0. Conditions: stereoisomer not certain.
Turning to `CCCCCCCCCC(=O)OC(CC(=O)[O-])C[N+](C)(C)C` (stereo unspecified) [decanoylcarnitine], the LC retention time was 9 min. The value for `CCCCCCCCC(=O)OC(CC(=O)[O-])C[N+](C)(C)C` (stereo unspecified) [nonanoylcarnitine] was 8.1 min. For `CN(C)c1nc2c(ncn2C2OC(CO)C(O)C2O)c(=O)[nH]1` (stereo unspecified) [N,N-dimethylguanosine] the value was 4.8 min; for `O=c1[nH]cnc2nc[nH]c12` [hypoxanthine], 1.1 min; for `CSCCC(N)C(=O)O` (stereo unspecified) [methionine], 1.1 min. For `O=C(O)CC(Nc1ncnc2c1ncn2C1OC(CO)C(O)C1O)C(=O)O` (stereo unspecified) [succinyladenosine] the value was 4.8 min; for `OCc1ccccc1O` [2-hydroxybenzyl alcohol], 5.8 min. On to `CNc1nc2c(ncn2C2OC(CO)C(O)C2O)c(=O)[nH]1` (stereo unspecified) [N2-methylguanosine], for which the LC retention time was 4.4 min. For `O=C(OC1OC(C(=O)O)C(O)C(O)C1O)c1c[nH]c2ccccc12` (stereo unspecified) [3-indole carboxylic acid glucuronide] the value was 6.3 min; for `N[C@@H](Cc1c[nH]c2ccccc12)C(=O)O` [L-tryptophan], 0.8 min. In the case of `CC12CCC(=O)C=C1CCC1C2CCC2(C)C(C(=O)CO)CCC12` (stereo unspecified) [deoxycorticosterone], the LC retention time is 9.6 min. For the compound `NCCc1cnc[nH]1` [histamine], the LC retention time was 0.8 min. In the case of `O=C(O)c1cccnc1` [nicotinic acid], the LC retention time was 1.1 min. The value for `O=C(O)C1CCCN1` (stereo unspecified) [proline] was 1.1 min; that for `Cn1c(=O)c2c(ncn2C)n(C)c1=O` [caffeine] was 5.6 min; that for `CC12CCC(=O)C=C1CCC1C2CCC2(C)C(OC3OC(C(=O)O)C(O)C(O)C3O)CCC12` (stereo unspecified) [testosterone glucuronide] was 7.9 min. The value for `NCCc1c[nH]c2ccccc12` [tryptamine] was 5.7 min; that for `O=C(C=Cc1ccc(O)c(O)c1)OC1CC(O)(C(=O)O)CC(O)C1O` (stereo unspecified) [chlorogenic acid] was 5.5 min; that for `CC(C)CC(=O)C(=O)O` [4-methyl-2-oxovaleric acid (ketoleucine)] was 5.7 min. For `CC(C)C(=O)NCC(=O)O` [N-isobutyrylglycine] the value was 4.1 min; for `O=C(O)Cc1c[nH]c2ccc(O)cc12` [5-hydroxyindoleacetic acid], 5.7 min.

In the case of `Cc1cc2nc3c(=O)[nH]c(=O)nc-3n(CC(O)C(O)C(O)CO)c2cc1C` (stereo unspecified) [riboflavin], the LC retention time is 5.7 min. The value for `Cc1cc2c(cc1C)N(CC(O)C(O)C(O)COP(=O)(O)O)c1[nH]c(=O)[nH]c(=O)c1N2` (stereo unspecified) [FMNH] was 5.7 min. As for `O=C1CCNC(=O)N1` [5,6-dihydrouracil], the LC retention time is 1.1 min. Consider `O=C(O)CNC(=O)C1=CCCCC1` [tetrahydrohippuric acid], for which the LC retention time is 6.3 min. The value for `CC(=O)NCCc1c[nH]c2ccc(O)cc12` [N-acetyl-5-hydroxytryptamine (N-acetyl-serotonin)] was 5.8 min; that for `O=C(O)CC(=O)O` [malonic acid] was 1.04 min. With `CCCCCC=CCC=CCCCCCCCC(=O)OCC(O)COP(=O)([O-])OCC[N+](C)(C)C` (stereo unspecified) [1-linoleoylglycerophosphocholine GPCho(18:2)], the LC retention time was 11.2 min.

Regarding `NC(N)=NCCCC(N)C(=O)O` (stereo unspecified) [arginine], the LC retention time was 0.9 min.

As to `Nc1nc2nc[nH]c2c(=O)[nH]1` [guanine], the LC retention time is 1.1 min. For `CC(CCC(=O)O)C1CCC2C3C(O)CC4CC(O)CCC4(C)C3CC(O)C12C` (stereo unspecified) [cholic acid] the value was 9.2 min. Take `CCCC(=O)OC(CC(=O)[O-])C[N+](C)(C)C` (stereo unspecified) [butyrylcarnitine]: the LC retention time is 5 min. On to `NCCS(=O)(=O)O` [taurine], for which the LC retention time was 0.9 min. In the case of `CCCCCC=CC(=O)OC(CC(=O)[O-])C[N+](C)(C)C` (stereo unspecified) [octenoylcarnitine], the LC retention time was 7.3 min. For `O=CCC(O)C(O)CO` (stereo unspecified) [deoxyribose] the value was 0.9 min. The value for `NC(Cc1ccc(O)cc1)C(=O)O` (stereo unspecified) [tyrosine] was 1.1 min; that for `Cc1cnc(=O)[nH]c1N` [5-methylcytosine] was 1 min; that for `CN1C(=O)C(O)CC1c1cccnc1` (stereo not drawn) [trans-3-hydroxycotinine] was 1.1 min. For `NC(=O)c1cccnc1` [nicotinamide] the value was 1.1 min; for `Nc1ncnc2c1ncn2C1OC(CO)C(O)C1O` (stereo unspecified) [adenosine], 1.1 min. Turning to `CCCCCCCC(C(=O)O)C(=O)O` [heptylmalonic acid], the LC retention time was 6.1 min. In the case of `CC(=O)NC(CC(=O)O)C(=O)O` (stereo unspecified) [N-acetylaspartic acid], the LC retention time is 1.1 min. Consider `CC(C)(O)CC(=O)O` [3-hydroxy-3-methylbutyric acid (3-hydroxyisovaleric acid)], for which the LC retention time is 4.2 min. For `CC=C(C)C(=O)NCC(=O)O` [tiglylglycine] the value was 5.2 min; for `CCC(CCCCCC(=O)O)C(=O)O` (stereo unspecified) [2-ethylsuberic acid], 6.7 min. For `O=C(O)CCCCCCCCC(=O)O` [sebacic acid] the value was 7.6 min; for `OCC1OC(O)C(O)C(O)C1O` (stereo unspecified) [hexose], 0.9 min; for `CC(=O)NC(C)C(=O)O` (stereo unspecified) [acetylalanine], 1.8 min. Consider `O=C(O)C(O)C(O)C(O)C(O)CO` (stereo unspecified) [gluconic acid], for which the LC retention time was 0.9 min. Turning to `O=C(O)c1cc(=O)c2cccc(O)c2[nH]1` [xanthurenic acid], the LC retention time was 5.2 min. The value for `Cn1c(=O)[nH]c2[nH]c(=O)n(C)c2c1=O` [1,7-dimethyluric acid] was 5 min; that for `O=c1[nH]c(=O)c2ncn(C3OC(CO)C(O)C3O)c2[nH]1` (stereo unspecified) [xanthosine] was 4.3 min. The value for `CSCC(O)C(O)C(O)C=O` (stereo unspecified) [5-methylthioribose] was 1.1 min; that for `OCc1cccc(O)c1` [3-hydroxybenzyl alcohol] was 5.1 min. The value for `CC(C)(CCC(=O)O)C(=O)O` [2,2-dimethylglutaricacid] was 6 min; that for `NC(Cc1cnc[nH]1)C(=O)O` (stereo unspecified) [histidine] was 0.8 min; that for `CC12CCC3C(CCC4CC(OC5OC(C(=O)O)C(O)C(O)C5O)CCC43C)C1CCC2=O` (stereo unspecified) [androsterone glucuronide] was 8.6 min.

For `O=c1cc[nH]c(=O)[nH]1` [uracil], the LC retention time is 1.2 min. For `CC(=O)Nc1ccn(C2OC(CO)C(O)C2O)c(=O)n1` (stereo unspecified) [N4-acetylcytidine] the value was 4.6 min; for `NC(CCCC(=O)O)C(=O)O` (stereo unspecified) [2-aminoadipic acid], 1.1 min. `CCCCCCCCC=CCCCCCCCC(=O)OCC(O)COP(=O)([O-])OCC[N+](C)(C)C` (stereo unspecified) [1-oleoylglycerophosphocholine LysoPC(18:1)]: the LC retention time was 12 min. The value for `Nc1ccc(O)cc1` [4-aminophenol] was 1.1 min. For the compound `CCCCCC(=O)OC(CC(=O)[O-])C[N+](C)(C)C` (stereo unspecified) [hexanoylcarnitine], the LC retention time is 6.6 min. Regarding `NC(=O)CCC(N)C(=O)O` (stereo unspecified) [glutamine], the LC retention time is 0.9 min. As for `COC(=O)CCCCC(=O)O` [mono-methyl-adipate], the LC retention time is 6.3 min. On to `NC(=O)CCC(NC(=O)Cc1c[nH]c2ccccc12)C(=O)O` (stereo unspecified) [indoleacetyl glutamine], for which the LC retention time was 6.1 min. For `Nc1ccnc(=O)[nH]1` [cytosine] the value was 1.1 min. For `CN1CCCC1c1cccnc1` (stereo unspecified) [nicotine] the value was 1.1 min; for `Cc1ccc(C(=O)NCC(=O)O)cc1` [4-methylhippuric acid (para-methylhippuric acid)], 6.7 min. For the compound `NCCCCNCCCN` [spermidine], the LC retention time is 0.8 min. Consider `CC(=O)Nc1ccc(O)cc1` [acetaminophen], for which the LC retention time is 4.9 min. Regarding `CC(=O)NCCC(=O)NC(Cc1cnc[nH]1)C(=O)O` (stereo unspecified) [N-acetylcarnosine], the LC retention time was 1.1 min.

With `NC(CO)C(=O)O` (stereo unspecified) [serine], the LC retention time is 0.9 min. The value for `CN(CC(=O)O)C(=N)N` [creatine] was 1 min; that for `O=C(O)CNC(=O)C=Cc1ccccc1` [cinnamoylglycine] was 7 min; that for `NC(N)=NCC(=O)O` [guanidoacetic acid] was 0.9 min.

Turning to `OCC1NCC(O)C(O)C1OC1OC(CO)C(O)C(O)C1O` (stereo unspecified) [glucopyranosylmoranoline], the LC retention time was 4.5 min.

Consider `C[n+]1cccc(C(=O)[O-])c1` [trigonelline], for which the LC retention time was 0.9 min. For `C[N+]1(C)CCCC1C(=O)[O-]` (stereo unspecified) [stachydrine (proline betaine)] the value was 1 min. For `O=C(O)CNC(=O)c1cccc(O)c1` [m-hydroxyhippuric acid], the LC retention time is 6.1 min. `C[N+](C)(C)[O-]` [trimethylamine oxide]: the LC retention time is 0.9 min. With `CC(=O)NC(Cc1ccccc1)C(=O)O` (stereo unspecified) [N-acetylphenylalanine], the LC retention time was 6.6 min.

`Cn1c(=O)c2[nH]c(=O)[nH]c2n(C)c1=O` [1,3-dimethyluric acid]: the LC retention time was 4.7 min.

Turning to `[NH3+]CCCCCC(=O)[O-]` [6-aminocaproic acid], the LC retention time was 1 min. With `CC(=O)Nc1ccc(OC2OC(C(=O)O)C(O)C(O)C2O)cc1` (stereo unspecified) [acetaminophene glucuronide], the LC retention time is 4.2 min. The value for `CCOC(=O)c1ccccc1C(=O)O` [monoethyl phthalate] was 7.6 min.
